The text below walks through data of patent publication US20260240872A1, “COMBINATION OF METFORMIN AND GLIBENCLAMIDE IN THE TREATMENT OF PARKINSON'S DISEASE” (CXS THERAPEUTICS, priority 2023, published 2026).

Common to all, as to type: cell-based
The subject of data set [1] is rat primary dopaminergic neurons. Put plainly: Example 2: 6-OHDA injury, protective protocol, length of TH positive neurites. The settings on record: for neurites loss (decrease of neurites length): 6-OHDA 20 μM, 48 hours; for neurites loss / protection of neurites from damages induced by 6-OHDA: one-hour pre-treatment, 6-OHDA 48 hours; for neurites loss: Plate 1, not significant; for protection of neurites from damages induced by 6-OHDA: compound alone, conclusion; for neurites length: p<0.05. How it is done: (§1) The total number and the neurites length of dopaminergic neurons was assessed.
(§2) Rat mesencephalic neurons were cultured as described by Schinelli et al., 1988. Briefly pregnant female rats of 15 days gestation were killed by cervical dislocation (Rats Wistar; Janvier Lab) and the fetuses removed from the uterus. The embryonic midbrains were removed and placed in ice-cold medium of Leibovitz 15 (L15; PanBiotech, Ref P04-27055, Batch: 1260323) containing 2% of Penicillin-Streptomycin (PS; PanBiotech, ref: P06-07100, Batch: 2585615) and 1% of bovine serum albumin (BSA; Sigma, Ref: 810533, Batch: 73). Only the ventral portions of the mesencephalic flexure were used for the cell preparation as this region of the developing brain is enriched in dopaminergic neurons. The midbrains were dissociated by […] for 20 minutes (min) at 37° C. (Trypsin EDTA 1×; PanBiotech, Ref: P10-023100, Batch: 8290223). The reaction was stopped by the addition of Dulbecco's modified Eagles medium (DMEM; PanBiotech, Ref: P04-03600, Batch: 6041222) containing Dnase | grade II (0.1 mg/ml; PanBiotech, Ref: P60-37780100, Batch: H210916) and 10% of fetal calf serum (FCS; Invitrogen, Ref: 10270106, Batch: 2534381). Cells were then mechanically dissociated by 3 passages through a 10 mL pipette. Cells were then centrifuged at 180×g for 10 min at +4° C. on a layer of BSA (3.5%) in L15 medium. The supernatant was discarded and the cell pellets were resuspended in a defined culture medium consisting of Neurobasal Plus (Gibco, Ref: A3582901, Batch: 2537248) supplemented with 2% of B27 Plus (Gibco, ref: A3582801, Batch: 2722550), L-glutamine (2 mM; PanBiotech, Ref: P04-80100, Batch: 7061121), 2% of PS, 10 ng/ml of BDNF PeproTech, Ref: 450-02, Batch: 092361) and 1 ng/ml of Glial Derived Neurotrophic factor (GDNF; PeproTech, Ref: 450-10, Batch: 012364). Viable cells were then counted in a Neubauer cytometer using the trypan blue exclusion test. The cells were seeded at a density of 40 000 cells/well in 96 well-plates coated with poly-L-Ornithine (Sigma, Ref: P4957, Batch: RNBL6953) and laminin (Sigma, Ref: L2020, Batch: 0000216258), and were cultured at 37° C. in a humidified air (95%)/CO2 (5%) atmosphere. Half of the medium was changed every 2 days with fresh medium. In these conditions, after 5 days of culture, astrocytes are present in the culture and release growth factor allowing neurons differentiation. In this condition, 2 to 5% of neurons are dopaminergic neurons.
(§3) Briefly, 6-OHDA (Sigma, Ref: H4381, Batch: MKCQ5002) was reconstituted in define culture medium at 40 μM (stock solution). The control medium was prepared in the same conditions. After 7 days of culture, primary mesencephalic neurons were pre-treated for 1 hour with test compounds or reference compound (BDNF, 50 ng/ml) and then intoxicated with 6-OHDA at a final concentration of 20 μM for 2 days incubation in order to induce a neuronal cell death of about 40%. The following conditions were done:
(§4) After 2 days of intoxication, cells were fixed by a solution of 4% paraformaldehyde (Alpha Aesar, ref J19943, Batch: 211457) for 20 min at room temperature, the control conditions were fixed as well following the same procedure. The cells were then permeabilized and non-specific sites were blocked with a solution of phosphate buffered saline (PBS; VWR; ref: L0615-500, Batch: MS01 MB) containing 0.1% of saponin (Sigma; ref: S7900, Batch: BCBL8667V) and 1% FCS for 15 min at room temperature. Cells were incubated with a rabbit polyclonal anti-Tyrosine Hydroxylase antibody (TH, 1/1000, Sigma, ref: AB152, Batch: 3870479) in a solution of PBS overnight at 4° C.
(§5) Nuclei of cells were labelled by a fluorescent marker (Hoechst, Sigma; ref: B1155, Batch: 046M4048V) in the same solution.
(§6) For each condition, 20 pictures per well were taken using InCell Analyzer™ 2200 (GE Healthcare) with 20× magnification. Images of each culture well were taken in same condition.

The test system is the same in data set [2]. Put plainly: Example 2: 6-OHDA injury, protective protocol, total number of TH positive neurons (dopaminergic neurons survival). The settings on record: for cellular death (decrease of dopaminergic neurons survival): 48 hours; for cellular death / protection of dopaminergic neurons from cell death induced by 6-OHDA: one-hour pre-treatment; for cellular death: 6-OHDA 20 μM 48 hours, Plate 1, not significant; for protection of dopaminergic neurons from cell death induced by 6-OHDA: compound alone, 6-OHDA 48 hours, conclusion; for dopaminergic neurons survival: BDNF 50 ng/ml + 6-OHDA 20 μM 48 hours. How it is done:
as §1, §2, §3, §4, §5, §6

Data set [3] shares this test system. Put plainly: Example 1: 6OH-DA injury on rat primary mesencephalic culture, number of TH positive dopaminergic neurons (survival/viability). The settings on record: FIG. 1.
Data set [4] has the same test system. Put plainly: Example 1: 6OH-DA injury on rat primary mesencephalic culture, neurite length (fitness) of dopaminergic neurons. The settings on record: compound alone; as compared to Brain Derived Neurotrophic Factor; FIG. 2. The source says: In these conditions, after 5 days of culture, astrocytes are present in the culture and release growth factor allowing neurons differentiation.

As to `NCCc1cc(O)c(O)cc1O` [6-OHDA, 6-hydroxydopamine], the “neurites loss (decrease of neurites length)” value in data set [1] (Plate 1, FIG. 9, p<0.001) came out at 54%; in data set [1] (Plate 2, FIG. 10, p<0.0001), 56%; in data set [1] (Plate 3, FIG. 11, p<0.001), 45%. Further, the “cellular death (decrease of dopaminergic neurons survival)” value in data set [2] (20 μM, Plate 2, FIG. 7, p<0.0001) was found to be 55%; in data set [2] (6-OHDA 20 μM, Plate 1, FIG. 6, p<0.0001) it was 54%; in data set [2] (6-OHDA 20 μM, Plate 3, FIG. 8, p<0.001), 46%.

For the molecule `CN(C)C(=N)NC(=N)N` [CXS001, 1,1-dimethylbiguanide], the figures for the neurites loss in data set [1] (compound alone at 1 μM), in data set [1] (compound alone at 3 μM) and in data set [1] (compound alone at 10 μM) were 38%, 43% and 55%, respectively. Also, the “protection of neurites from damages induced by 6-OHDA” value in data set [1] is on record as “does not protect”. Moreover, the cellular death was 43% in data set [2] (compound alone at 1 μM), 44% in data set [2] (compound alone at 3 μM) and 51% in data set [2] (compound alone at 10 μM). Further, in data set [2], the “protection of dopaminergic neurons from cell death induced by 6-OHDA” value was “does not protect”.

With `COc1ccc(Cl)cc1C(=O)NCCc1ccc(S(=O)(=O)NC(=O)NC2CCCCC2)cc1` [CXS002, Glibenclamide], the neurites loss is recorded as 58% in data set [1] (compound alone at 1 μM), 57% in data set [1] (compound alone at 3 μM) and 47% in data set [1] (compound alone at 10 μM). Further, the “protection of neurites from damages induced by 6-OHDA” value in data set [1] is “does not protect”. Besides, the neuron viability result in data set [3] (at high concentration, 6OHDA intoxication) is “seems to decrease neuron viability”. In data set [3] (compound alone, as compared to Brain Derived Neurotrophic Factor), the “dopaminergic neuron survival in 6OHDA intoxication” value was “did not improve dopaminergic neuron survival”. The cellular death in data set [2] (compound alone at 1 μM) turned out to be 58%; in data set [2] (compound alone at 3 μM), 57%; in data set [2] (compound alone at 10 μM), 47%. For the same molecule, in data set [2], the “protection of dopaminergic neurons from cell death induced by 6-OHDA” value is “does not protect”. In addition, the “dopaminergic neuron fitness (neurite length) in 6OHDA intoxication” value in data set [4] was “did not improve dopaminergic neuron fitness”.

B1: BDNF: Brain Derived Neurotrophic factor, used as reference compound (positive control) at 50 ng/ml (protein, UniProt P23560 19-247, looked up)
Neurotrophic factor BDNF …: APMKEANIRGQGGLAYPGVRTHGTLESVNGPKAGSRGLTSLADTFEHVIEELLDEDQKVRPNEENNKDADLYTSRVMLSSQVPLEPPLLFLLEEYKNYLDAANMSMRVRRHSDPARRGELSVCDSISEWVTAADKKTAVDMSGGTVTVLEKVPVSKGQLKQYFYETKCNPMGYTKEGCRGIDKRHWNSQCRTTQSYVRALTMDSKKRIGWRFIRIDTSCVCTLTIKRGR
Consider B1, for which the neurites length is 79 % of the control in data set [1] (BDNF 50 ng/mL + 6-OHDA 20 μM 48 hours, Plate 1, FIG. 9); 76 % of the control in data set [1] (BDNF 50 ng/ml + 6-OHDA 20 μM 48 hours, Plate 2, FIG. 10); 85 % of the control in data set [1] (BDNF 50 ng/ml + 6-OHDA 20 μM 48 hours, Plate 3, FIG. 11). The dopaminergic neurons survival in data set [2] (Plate 1, FIG. 6, p<0.05) is recorded as 81 % of the control; in data set [2] (Plate 2, FIG. 7, p<0.0001), 87 % of the control; in data set [2] (Plate 3, FIG. 8, p<0.05), 83 % of the control.
